Reference: patent publication US9051270B2, “Pyridone amides as modulators of sodium channels” (Vertex Pharmaceuticals Incorporated, priority 2013, dated 2015)

Experiments:
[1] = Microsomal stability assay, human liver microsomes (HLM); type: in vitro ADME; settings: human liver microsomes 0.5 mg/mL, 1 uM substrate, 2 mM NADPH, 37° C., referenced against time zero control
Experimental: (§1) Microsomal Stability Assay.
(§2) Compounds were incubated at 37° C. and shaken for 30 minutes in a phosphate buffered solution with either rat or human liver microsomes and the cofactor NADPH. A time zero control was similarly prepared, however with NADPH excluded. The final incubation concentrations were 1 uM substrate (0.2% DMSO), 0.5 mg/mL liver microsome, 2 mM NADPH, and 0.1 M phosphate. Reactions were quenched and proteins precipitated with the addition of 2 volume equivalents of ice cold acetonitrile containing an internal standard. Following a centrifugation step, aliquots from the quenched incubations were further diluted with 4 volume equivalents of a 50% aqueous methanol solution and then subjected to LC/MS/MS analysis for quantitation of parent compound. Microsome stability values were calculated as the percent of substrate remaining after 30 minutes referenced against the time zero control.
(§3) Microsomal stability in rat and human liver microsomes were determined for selected compounds of the present invention using the above assay. Table 4 provides the human liver microsomes (“HLM”) and rat liver microsomes (“RLM”) stability data as the percent of compound remaining after 30 minutes referenced against the time zero control.

[2] = Microsomal stability assay, rat liver microsomes (RLM); type: in vitro ADME; settings: rat liver microsomes 0.5 mg/mL, 1 uM substrate, 2 mM NADPH, 37° C., referenced against time zero control
Experimental: as §1, §2, §3

human Nav1.8 = human Nav1.8 (Homo sapiens (Human), UniProt Q9Y5Y9); test: E-VIPR optical membrane potential assay with electrical stimulation; type: cell-based; settings: HEK cells expressing human Nav1.8
human Nav1.8, sequence (Q9Y5Y9 whole entry): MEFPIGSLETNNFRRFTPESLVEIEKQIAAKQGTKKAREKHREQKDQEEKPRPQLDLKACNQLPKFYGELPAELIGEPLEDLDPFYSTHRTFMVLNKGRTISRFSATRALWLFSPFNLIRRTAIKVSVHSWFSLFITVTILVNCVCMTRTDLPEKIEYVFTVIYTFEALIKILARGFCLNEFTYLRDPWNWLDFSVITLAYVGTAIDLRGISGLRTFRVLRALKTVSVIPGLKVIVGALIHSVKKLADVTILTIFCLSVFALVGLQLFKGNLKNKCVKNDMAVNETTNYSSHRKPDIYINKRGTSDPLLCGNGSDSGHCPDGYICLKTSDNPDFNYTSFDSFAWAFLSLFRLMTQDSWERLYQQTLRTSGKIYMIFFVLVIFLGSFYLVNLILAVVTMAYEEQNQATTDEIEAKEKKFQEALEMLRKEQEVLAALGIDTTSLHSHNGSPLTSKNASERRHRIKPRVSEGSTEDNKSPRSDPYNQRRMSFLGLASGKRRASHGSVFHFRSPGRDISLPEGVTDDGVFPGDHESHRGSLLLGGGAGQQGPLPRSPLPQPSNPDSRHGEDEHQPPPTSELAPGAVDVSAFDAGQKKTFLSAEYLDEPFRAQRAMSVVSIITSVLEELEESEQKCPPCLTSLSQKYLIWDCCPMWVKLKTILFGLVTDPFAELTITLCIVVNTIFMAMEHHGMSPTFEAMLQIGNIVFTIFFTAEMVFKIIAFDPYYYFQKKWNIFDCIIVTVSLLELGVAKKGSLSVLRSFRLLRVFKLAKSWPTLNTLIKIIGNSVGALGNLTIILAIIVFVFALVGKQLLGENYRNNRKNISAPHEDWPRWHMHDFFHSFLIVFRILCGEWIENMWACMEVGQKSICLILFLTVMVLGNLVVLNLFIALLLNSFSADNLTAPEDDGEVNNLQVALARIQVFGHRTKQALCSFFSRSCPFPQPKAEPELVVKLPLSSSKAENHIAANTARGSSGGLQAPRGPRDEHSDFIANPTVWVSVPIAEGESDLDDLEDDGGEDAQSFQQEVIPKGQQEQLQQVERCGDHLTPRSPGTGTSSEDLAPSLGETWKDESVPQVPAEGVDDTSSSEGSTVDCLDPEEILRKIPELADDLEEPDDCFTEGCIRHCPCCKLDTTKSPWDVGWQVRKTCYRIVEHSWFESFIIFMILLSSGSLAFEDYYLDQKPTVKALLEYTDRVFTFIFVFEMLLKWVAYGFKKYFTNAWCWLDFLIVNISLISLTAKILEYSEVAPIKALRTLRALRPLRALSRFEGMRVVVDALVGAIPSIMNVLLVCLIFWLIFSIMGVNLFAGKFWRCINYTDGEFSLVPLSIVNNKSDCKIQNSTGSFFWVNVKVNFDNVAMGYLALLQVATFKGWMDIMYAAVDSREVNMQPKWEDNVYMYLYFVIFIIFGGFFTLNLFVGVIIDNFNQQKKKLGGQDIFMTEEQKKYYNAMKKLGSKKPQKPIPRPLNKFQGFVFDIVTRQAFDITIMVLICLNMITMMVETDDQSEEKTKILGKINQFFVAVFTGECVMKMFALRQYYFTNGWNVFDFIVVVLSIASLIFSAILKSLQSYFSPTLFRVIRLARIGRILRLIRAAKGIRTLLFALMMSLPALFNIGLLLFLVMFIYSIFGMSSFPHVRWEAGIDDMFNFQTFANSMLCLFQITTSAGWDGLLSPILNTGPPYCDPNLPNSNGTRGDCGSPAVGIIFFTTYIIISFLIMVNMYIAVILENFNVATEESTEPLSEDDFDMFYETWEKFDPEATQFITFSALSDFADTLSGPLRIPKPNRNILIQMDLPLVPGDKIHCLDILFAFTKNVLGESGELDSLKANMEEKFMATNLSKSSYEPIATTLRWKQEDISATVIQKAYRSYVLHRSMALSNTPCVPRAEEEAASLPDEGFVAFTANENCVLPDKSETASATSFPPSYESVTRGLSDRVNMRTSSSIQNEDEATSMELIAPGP

HLM (% remaining @ 30 minutes) [1]	RLM (% remaining @ 30 minutes) [2]	IC50 (human Nav1.8)	Structure (SMILES)
100%	104%	0.054 µM	O=C(Nc1cc[nH]c(=O)c1)c1cc(C(F)(F)F)ccc1Oc1ccc(F)cc1 [Compound 2, 2-(4-fluorophenoxy)-N-(2-oxo-1,2-dihydropyridin-4-yl)-5-(trifluoromethyl)benzamide]
97%	99%	0.05 µM	O=C(Nc1cc[nH]c(=O)c1)c1ccc(C(F)(F)F)cc1Oc1ccc(F)cc1F [Compound 7, 2-(2,4-difluorophenoxy)-N-(2-oxo-1,2-dihydropyridin-4-yl)-4-(trifluoromethyl)benzamide]
90%	86%	0.33 µM	COCCOc1ccc(Oc2cc(C(F)(F)F)ccc2C(=O)Nc2cc[nH]c(=O)c2)cc1 [Compound 8, 2-(4-(2-methoxyethoxy)phenoxy)-N-(2-oxo-1,2-dihydropyridin-4-yl)-4-(trifluoromethyl)benzamide]
93%	82%		Cc1cc(F)ccc1Oc1cc(C(F)(F)F)ccc1C(=O)Nc1cc[nH]c(=O)c1 [Compound 10, 2-(4-fluoro-2-methylphenoxy)-N-(2-oxo-1,2-dihydropyridin-4-yl)-4-(trifluoromethyl)benzamide]
104%	88%	0.03 µM	Cc1cc(F)ccc1Oc1cc(Cl)ccc1C(=O)Nc1cc[nH]c(=O)c1 [Compound 20, 4-chloro-2-(4-fluoro-2-methylphenoxy)-N-(2-oxo-1,2-dihydropyridin-4-yl)benzamide]
		5.1 µM	O=C(Nc1cc[nH]c(=O)c1)c1cc(C(F)(F)F)ccc1OCC1CCCC1 [Compound 130, 2-(cyclopentylmethoxy)-N-(2-oxo-1,2-dihydropyridin-4-yl)-5-(trifluoromethyl)benzamide]
		0.33 µM	O=C(Nc1cc[nH]c(=O)c1)c1cc(C(F)(F)F)ccc1OCCC(F)(F)F [Compound 132, N-(2-oxo-1,2-dihydropyridin-4-yl)-5-(trifluoromethyl)-2-(3,3,3-trifluoropropoxy)benzamide]
		21 µM	CC1(C)CC1COc1ccc(C(F)(F)F)cc1C(=O)Nc1cc[nH]c(=O)c1 (stereo not drawn) [Compound 134, 2-((2,2-dimethylcyclopropyl)methoxy)-N-(2-oxo-1,2-dihydropyridin-4-yl)-5-(trifluoromethyl)benzamide]
		1.65 µM	O=C(Nc1cc[nH]c(=O)c1)c1cc(C(F)(F)F)ccc1OC1C[C@@H]2C[C@@H]2C1 (stereo partly drawn) [Compound 135]
		2.6 µM	O=C(Nc1cc[nH]c(=O)c1)c1cc(OC(F)(F)F)ccc1OCC1CCCC1 [Compound 136, 2-(cyclopentylmethoxy)-N-(2-oxo-1,2-dihydropyridin-4-yl)-5-(trifluoromethoxy)benzamide]
		12.7 µM	O=C(Nc1cc[nH]c(=O)c1)c1cc(OC(F)(F)F)ccc1OC1CCCCC1 [Compound 137, 2-(cyclohexyloxy)-N-(2-oxo-1,2-dihydropyridin-4-yl)-5-(trifluoromethoxy)benzamide]
		1.45 µM	O=C(Nc1cc[nH]c(=O)c1)c1cc(OC(F)(F)F)ccc1OCCC(F)(F)F [Compound 138, N-(2-oxo-1,2-dihydropyridin-4-yl)-5-(trifluoromethoxy)-2-(3,3,3-trifluoropropoxy)benzamide]
		15 µM	CC1(C)CC1COc1ccc(OC(F)(F)F)cc1C(=O)Nc1cc[nH]c(=O)c1 (stereo not drawn) [Compound 140, 2-((2,2-dimethylcyclopropyl)methoxy)-N-(2-oxo-1,2-dihydropyridin-4-yl)-5-(trifluoromethoxy)benzamide]
		0.078 µM	CC(C)(C)c1ccc(C(=O)Nc2cc[nH]c(=O)c2)c(Oc2ccc(C(F)(F)F)nc2)c1 [Compound 141, 4-(tert-butyl)-N-(2-oxo-1,2-dihydropyridin-4-yl)-2-((6-(trifluoromethyl)pyridin-3-yl)oxy)benzamide]
		3.35 µM	O=C(Nc1cc[nH]c(=O)c1)c1ccc(Cl)cc1Oc1ccc(C(F)(F)F)nc1 [Compound 143, 4-chloro-N-(2-oxo-1,2-dihydropyridin-4-yl)-2-((6-(trifluoromethyl)pyridin-3-yl)oxy)benzamide]
		0.615 µM	O=C(Nc1cc[nH]c(=O)c1)c1ccc(C(F)(F)F)cc1Oc1ccc(C(F)(F)F)nc1 [Compound 144, N-(2-oxo-1,2-dihydropyridin-4-yl)-4-(trifluoromethyl)-2-((6-(trifluoromethyl)pyridin-3-yl)oxy)benzamide]
		5 µM	O=C(Nc1ccc(=O)[nH]c1)c1ccc(C(F)(F)F)cc1Oc1ccc(C(F)(F)F)nc1 [Compound 145, N-(6-oxo-1,6-dihydropyridin-3-yl)-4-(trifluoromethyl)-2-((6-(trifluoromethyl)pyridin-3-yl)oxy)benzamide]
		4.6 µM	Cc1ccc(Oc2cc(C(F)(F)F)ccc2C(=O)Nc2cc[nH]c(=O)c2)cn1 [Compound 146, 2-((6-methylpyridin-3-yl)oxy)-N-(2-oxo-1,2-dihydropyridin-4-yl)-4-(trifluoromethyl)benzamide]
		3.8 µM	Cc1ncccc1Oc1cc(C(F)(F)F)ccc1C(=O)Nc1cc[nH]c(=O)c1 [Compound 147, 2-((2-methylpyridin-3-yl)oxy)-N-(2-oxo-1,2-dihydropyridin-4-yl)-4-(trifluoromethyl)benzamide]
		0.45 µM	Cn1ccc(NC(=O)c2ccc(C(C)(C)C)cc2Oc2ccc(C(F)(F)F)nc2)cc1=O [Compound 148, 4-(tert-butyl)-N-(1-methyl-2-oxo-1,2-dihydropyridin-4-yl)-2-((6-(trifluoromethyl)pyridin-3-yl)oxy)benzamide]
		1.65 µM	Cn1cc(NC(=O)c2ccc(C(C)(C)C)cc2Oc2ccc(C(F)(F)F)nc2)ccc1=O [Compound 149, 4-(tert-butyl)-N-(1-methyl-6-oxo-1,6-dihydropyridin-3-yl)-2-((6-(trifluoromethyl)pyridin-3-yl)oxy)benzamide]
		6.6 µM	Cc1ncccc1Oc1ccc(C(F)(F)F)cc1C(=O)Nc1cc[nH]c(=O)c1 [Compound 150, 2-((2-methylpyridin-3-yl)oxy)-N-(2-oxo-1,2-dihydropyridin-4-yl)-5-(trifluoromethyl)benzamide]
		8.4 µM	Cc1ncccc1Oc1ccc(OC(F)(F)F)cc1C(=O)Nc1cc[nH]c(=O)c1 [Compound 151, 2-((2-methylpyridin-3-yl)oxy)-N-(2-oxo-1,2-dihydropyridin-4-yl)-5-(trifluoromethoxy)benzamide]
		0.01 µM	Cc1cc(F)ccc1Oc1cc(C(F)(F)F)cc(C(F)(F)F)c1C(=O)Nc1cc[nH]c(=O)c1 [Compound 153, 2-(4-fluoro-2-methylphenoxy)-N-(2-oxo-1,2-dihydropyridin-4-yl)-4,6-bis(trifluoromethyl)benzamide]
		0.005 µM	COc1cc(F)ccc1Oc1cc(C(F)(F)F)cc(C(F)(F)F)c1C(=O)Nc1cc[nH]c(=O)c1 [Compound 154, 2-(4-fluoro-2-methoxyphenoxy)-N-(2-oxo-1,2-dihydropyridin-4-yl)-4,6-bis(trifluoromethyl)benzamide]
		0.011 µM	O=C(Nc1cc[nH]c(=O)c1)c1c(Oc2ccc(F)cc2)cc(C(F)(F)F)cc1C(F)(F)F [Compound 155, 2-(4-fluorophenoxy)-N-(2-oxo-1,2-dihydropyridin-4-yl)-4,6-bis(trifluoromethyl)benzamide]
		0.052 µM	O=C(Nc1cc[nH]c(=O)c1)c1c(Oc2ccccc2)cc(C(F)(F)F)cc1C(F)(F)F [Compound 156, N-(2-oxo-1,2-dihydropyridin-4-yl)-2-phenoxy-4,6-bis(trifluoromethyl)benzamide]
		0.002 µM	COc1cc(F)ccc1Oc1cc(C(F)(F)F)ccc1C(=O)Nc1cc[nH]c(=O)c1 [Compound 158, 2-(4-fluoro-2-methoxyphenoxy)-N-(2-oxo-1,2-dihydropyridin-4-yl)-4-(trifluoromethyl)benzamide]
		2.6 µM	O=C(Nc1cc[nH]c(=O)c1)c1ccc(C(F)(F)F)cc1OCc1cc(F)ccc1O [Compound 159, 2-((5-fluoro-2-hydroxybenzyl)oxy)-N-(2-oxo-1,2-dihydropyridin-4-yl)-4-(trifluoromethyl)benzamide]

Structure (SMILES)	HLM (% remaining @ 30 minutes) [1]	RLM (% remaining @ 30 minutes) [2]	IC50 (human Nav1.8)
CC(C)COc1ccc(C(F)(F)F)cc1C(=O)Nc1cc[nH]c(=O)c1 [Compound 131, 2-isobutoxy-N-(2-oxo-1,2-dihydropyridin-4-yl)-5-(trifluoromethyl)benzamide]			1.5 µM
O=C(Nc1cc[nH]c(=O)c1)c1cc(C(F)(F)F)ccc1OCCCC(F)(F)F [Compound 133, N-(2-oxo-1,2-dihydropyridin-4-yl)-2-(4,4,4-trifluorobutoxy)-5-(trifluoromethyl)benzamide]			5.8 µM
O=C(Nc1cc[nH]c(=O)c1)c1cc(OC(F)(F)F)ccc1OCCCC(F)(F)F [Compound 139, N-(2-oxo-1,2-dihydropyridin-4-yl)-2-(4,4,4-trifluorobutoxy)-5-(trifluoromethoxy)benzamide]			3.05 µM
O=C(Nc1cc[nH]c(=O)c1)c1cc(F)ccc1Oc1ccc(OCCCC(F)(F)F)cc1 [Compound 160, 5-fluoro-N-(2-oxo-1,2-dihydropyridin-4-yl)-2-(4-(4,4,4-trifluorobutoxy)phenoxy)benzamide]			1.39 µM
